Patent US20260132132A1, “3A,4,5,6-TETRAHYDRO-1 H-PYRAZOLO[3,4-C]PYRIDIN-7(7AH)-ONE DERIVATIVES AS FACTOR XIIA INHIBITORS” (KALVISTA PHARMACEUTICALS LIMITED, priority 2022, published 2026)

Target: T1, Human Factor XIIa (hFXIIa) (Homo sapiens, UniProt P00748)
T1 construct: purchased Enzyme Research Laboratories
T1 sequence (P00748 373-615 limits assumed): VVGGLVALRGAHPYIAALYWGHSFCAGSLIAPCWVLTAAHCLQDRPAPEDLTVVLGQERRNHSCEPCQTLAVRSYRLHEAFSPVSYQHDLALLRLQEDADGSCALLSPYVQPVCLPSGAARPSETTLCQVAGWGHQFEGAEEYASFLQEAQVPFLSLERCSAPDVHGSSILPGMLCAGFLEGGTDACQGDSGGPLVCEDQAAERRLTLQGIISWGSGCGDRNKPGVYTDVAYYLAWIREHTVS
T1 sequence (P00748 20-372 partner limits assumed): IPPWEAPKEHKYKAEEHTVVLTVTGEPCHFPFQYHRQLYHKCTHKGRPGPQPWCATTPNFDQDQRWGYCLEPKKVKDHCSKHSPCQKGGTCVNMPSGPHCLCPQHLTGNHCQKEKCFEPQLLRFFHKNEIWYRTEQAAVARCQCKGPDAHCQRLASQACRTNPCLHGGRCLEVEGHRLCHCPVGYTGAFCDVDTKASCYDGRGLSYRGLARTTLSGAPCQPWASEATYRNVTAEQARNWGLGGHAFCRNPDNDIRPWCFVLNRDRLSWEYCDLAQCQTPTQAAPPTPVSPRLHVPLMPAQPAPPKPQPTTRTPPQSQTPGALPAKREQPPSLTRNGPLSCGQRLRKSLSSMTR
Assay: Determination of Human Factor XIIa (hFXIIa) inhibition, fluorogenic substrate IC50 assay
Type: biochemical
Conditions: fluorogenic substrate H-DPro-Phe-Arg-AFC at Km, 25° C., read-out: Human FXIIa IC50
Experimental: Determination of Human Factor XIIa (hFXIIa) inhibition
The Km for the cleavage of the substrate by hFXIIa was determined by standard transformation of the Michaelis-Menten equation, with subsequent inhibition assays performed at substrate Km concentration.

IC50 [nM]	SMILES
1000 to 3000	NC(=O)CN1CCc2ccc(N3CCc4c(C(=O)NCC5CC5)nn(-c5cccc(Cl)c5)c4C3=O)cc2C1 [Example 1033, 6-(2-(2-amino-2-oxoethyl)-1,2,3,4-tetrahydroisoquinolin-7-yl)-1-(3-chlorophenyl)-N-(cyclopropylmethyl)-7-oxo-4,5,6,7-tetrahydro-1H-pyrazolo[3,4-c]pyridine-3-carboxamide]
1000 to 3000	O=C(NCC1CC1)c1nn(-c2cccc(Cl)c2)c2c1CCN(c1cccc(CN3CCC(F)C3)c1)C2=O (centres unmarked) [Example 1243, 1-(3-chlorophenyl)-N-(cyclopropylmethyl)-6-(3-((3-fluoropyrrolidin-1-yl)methyl)phenyl)-7-oxo-4,5,6,7-tetrahydro-1H-pyrazolo[3,4-c]pyridine-3-carboxamide]
100 to 300	O=C(NCC1CC1)c1nn(-c2cccc(Cl)c2)c2c1CCN(c1ccc3c(c1)C(=O)N(CCO)CCC3)C2=O [Example 1294, 1-(3-chlorophenyl)-N-(cyclopropylmethyl)-6-(2-(2-hydroxyethyl)-1-oxo-2,3,4,5-tetrahydro-1H-benzo[c]azepin-8-yl)-7-oxo-4,5,6,7-tetrahydro-1H-pyrazolo[3,4-c]pyridine-3-carboxamide]
300 to 1000	CN1CCc2ccc(N3CCc4c(C(=O)NCC56CC(CO)(CCO5)C6)nn(-c5cccc(Cl)c5)c4C3=O)cc2C1 [Example 1046, 1-(3-chlorophenyl)-N-((5-(hydroxymethyl)-2-oxabicyclo[3.1.1]heptan-1-yl)methyl)-6-(2-methyl-1,2,3,4-tetrahydroisoquinolin-7-yl)-7-oxo-4,5,6,7-tetrahydro-1H-pyrazolo[3,4-c]pyridine-3-carboxamide]
300 to 1000	O=C(NCc1ccccc1)c1nn(-c2cccc(Cl)c2)c2c1CCN(c1cccc(CN3CCCC3)c1)C2=O [Example 1017, N-benzyl-1-(3-chlorophenyl)-7-oxo-6-(3-(pyrrolidin-1-ylmethyl)phenyl)-4,5,6,7-tetrahydro-1H-pyrazolo[3,4-c]pyridine-3-carboxamide]
100 to 300	CCCN1CCc2ccc(N3CCc4c(C(=O)NCC5CC5)nn(-c5cccc(Cl)c5)c4C3=O)cc2C1 [Example 1052, 1-(3-chlorophenyl)-N-(cyclopropylmethyl)-7-oxo-6-(2-propyl-1,2,3,4-tetrahydroisoquinolin-7-yl)-4,5,6,7-tetrahydro-1H-pyrazolo[3,4-c]pyridine-3-carboxamide]
100 to 300	Cc1cc(CNC(=O)c2nn(-c3cccc(Cl)c3)c3c2CCN(c2ccc4c(c2)C(=O)N(CC2CCCO2)CC4)C3=O)nn1C (centres unmarked) [Example 1293, 1-(3-chlorophenyl)-N-((1,5-dimethyl-1H-pyrazol-3-yl)methyl)-7-oxo-6-(1-oxo-2-((tetrahydrofuran-2-yl)methyl)-1,2,3,4-tetrahydroisoquinolin-7-yl)-4,5,6,7-tetrahydro-1H-pyrazolo[3,4-c]pyridine-3-carboxamide]
100 to 300	O=C(N[C@@H]1CCOC1)c1nn(-c2cccc(Cl)c2)c2c1CCN(c1ccc3c(c1)CN(CCO)CC3)C2=O [Example 1108, (R)-1-(3-chlorophenyl)-6-(2-(2-hydroxyethyl)-1,2,3,4-tetrahydroisoquinolin-7-yl)-7-oxo-N-(tetrahydrofuran-3-yl)-4,5,6,7-tetrahydro-1H-pyrazolo[3,4-c]pyridine-3-carboxamide]
3000 to 10000	CN1CCc2ccc(N3CCc4c(C(=O)NCC5CC5)nn(-c5cc(Cl)ccn5)c4C3=O)cc2C1=O [Example 2016, 1-(4-chloropyridin-2-yl)-N-(cyclopropylmethyl)-6-(2-methyl-1-oxo-1,2,3,4-tetrahydroisoquinolin-7-yl)-7-oxo-4,5,6,7-tetrahydro-1H-pyrazolo[3,4-c]pyridine-3-carboxamide]
300 to 1000	Cc1cc(N2CCc3c(C(=O)NCC4CC4)nn(-c4cccc(Cl)c4)c3C2=O)cc2c1CCN(C)C2 [Example 1048, 1-(3-Chlorophenyl)-N-(cyclopropylmethyl)-6-(2,5-dimethyl-1,2,3,4-tetrahydroisoquinolin-7-yl)-7-oxo-4,5,6,7-tetrahydro-1H-pyrazolo[3,4-c]pyridine-3-carboxamide]
10000 to 40000	O=C(NCC1CC1)c1nn(-c2cccc(Cl)c2)c2c1CCN(c1cccc(CN3CCOC3=O)c1)C2=O [Example 1316, 1-(3-chlorophenyl)-N-(cyclopropylmethyl)-7-oxo-6-(3-((2-oxooxazolidin-3-yl)methyl)phenyl)-4,5,6,7-tetrahydro-1H-pyrazolo[3,4-c]pyridine-3-carboxamide]
100 to 300	O=C(NCC1CC1)c1nn(-c2cccc(Cl)c2)c2c1CCN(c1ccc3c(c1)CN(C1CCC1)CC3)C2=O [Example 1103, 1-(3-chlorophenyl)-6-(2-cyclobutyl-1,2,3,4-tetrahydroisoquinolin-7-yl)-N-(cyclopropylmethyl)-7-oxo-4,5,6,7-tetrahydro-1H-pyrazolo[3,4-c]pyridine-3-carboxamide]
10000 to 40000	O=C(NCC1CC1)c1nn(-c2cccc(Cl)c2)c2c1CCN(c1cccc(C(=O)N3CCCC3)c1)C2=O [Example 1263, 1-(3-chlorophenyl)-N-(cyclopropylmethyl)-7-oxo-6-(3-(pyrrolidine-1-carbonyl)phenyl)-4,5,6,7-tetrahydro-1H-pyrazolo[3,4-c]pyridine-3-carboxamide]
100 to 300	NCCN1CCc2ccc(N3CCc4c(C(=O)NCC5CC5)nn(-c5cccc(Cl)c5)c4C3=O)cc2C1 [Example 1098, 6-(2-(2-aminoethyl)-1,2,3,4-tetrahydroisoquinolin-7-yl)-1-(3-chlorophenyl)-N-(cyclopropylmethyl)-7-oxo-4,5,6,7-tetrahydro-1H-pyrazolo[3,4-c]pyridine-3-carboxamide]
100 to 300	CCN1CCc2ccc(N3CCc4c(C(=O)NCc5cc(C)n[nH]5)nn(-c5cccc(Cl)c5)c4C3=O)cc2C1 [Example 1086, 1-(3-chlorophenyl)-6-(2-ethyl-1,2,3,4-tetrahydroisoquinolin-7-yl)-N-((3-methyl-1H-pyrazol-5-yl)methyl)-7-oxo-4,5,6,7-tetrahydro-1H-pyrazolo[3,4-c]pyridine-3-carboxamide]
3000 to 10000	CN1CCc2ccc(N3CCc4c(C(=O)O)nn(-c5cccc(Cl)c5)c4C3=O)cc2C1=O [Example 1182, 1-(3-chlorophenyl)-6-(2-methyl-1-oxo-1,2,3,4-tetrahydroisoquinolin-7-yl)-7-oxo-4,5,6,7-tetrahydro-1H-pyrazolo[3,4-c]pyridine-3-carboxylic acid]
300 to 1000	CCOC(=O)c1nn(-c2cccc(C)n2)c2c1CCN(c1ccc3c(c1)C(=O)N(C)CC3)C2=O [Example 2023, ethyl 6-(2-methyl-1-oxo-1,2,3,4-tetrahydroisoquinolin-7-yl)-1-(6-methylpyridin-2-yl)-7-oxo-4,5,6,7-tetrahydro-1H-pyrazolo[3,4-c]pyridine-3-carboxylate]
1000 to 3000	CN1CCc2ncc(N3CCc4c(C(=O)NCC5CC5)nn(-c5cccc(Cl)c5)c4C3=O)cc2C1=O [Example 1301, 1-(3-chlorophenyl)-N-(cyclopropylmethyl)-6-(6-methyl-5-oxo-5,6,7,8-tetrahydro-1,6-naphthyridin-3-yl)-7-oxo-4,5,6,7-tetrahydro-1H-pyrazolo[3,4-c]pyridine-3-carboxamide]
1000 to 3000	CN1CCc2ccc(N3CCc4c(C(=O)N5CCOCC5)nn(-c5cccc(Cl)c5)c4C3=O)cc2C1 [Example 1067, 1-(3-chlorophenyl)-6-(2-methyl-1,2,3,4-tetrahydroisoquinolin-7-yl)-3-(morpholine-4-carbonyl)-1,4,5,6-tetrahydro-7H-pyrazolo[3,4-c]pyridin-7-one]
3000 to 10000	CN(C)C(=O)c1cc(N2CCc3c(C(=O)NCC4CC4)nn(-c4cccc(Cl)c4)c3C2=O)ccc1F [Example 1281, 1-(3-chlorophenyl)-N-(cyclopropylmethyl)-6-(3-(dimethylcarbamoyl)-4-fluorophenyl)-7-oxo-4,5,6,7-tetrahydro-1H-pyrazolo[3,4-c]pyridine-3-carboxamide]
10 to 100	Cc1cc(CNC(=O)c2nn(-c3cccc(Cl)c3)c3c2CCN(c2ccc4c(c2)CN(CCO)CC4)C3=O)nn1C [Example 1166, 1-(3-chlorophenyl)-N-((1,5-dimethyl-1H-pyrazol-3-yl)methyl)-6-(2-(2-hydroxyethyl)-1,2,3,4-tetrahydroisoquinolin-7-yl)-7-oxo-4,5,6,7-tetrahydro-1H-pyrazolo[3,4-c]pyridine-3-carboxamide]
100 to 300	Cc1cc(CNC(=O)c2nn(-c3cccc(Cl)c3)c3c2CCN(c2ccc4c(c2)C(=O)N(C2COC2)CC4)C3=O)nn1C [Example 1290, 1-(3-chlorophenyl)-N-((1,5-dimethyl-1H-pyrazol-3-yl)methyl)-6-(2-(oxetan-3-yl)-1-oxo-1,2,3,4-tetrahydroisoquinolin-7-yl)-7-oxo-4,5,6,7-tetrahydro-1H-pyrazolo[3,4-c]pyridine-3-carboxamide]
10000 to 40000	CCN(CC)C(=O)c1cccc(N2CCc3c(C(=O)NCC4CC4)nn(-c4cccc(Cl)c4)c3C2=O)c1 [Example 1286, 1-(3-chlorophenyl)-N-(cyclopropylmethyl)-6-(3-(diethylcarbamoyl)phenyl)-7-oxo-4,5,6,7-tetrahydro-1H-pyrazolo[3,4-c]pyridine-3-carboxamide]
